From patent EP1379539B1, “METHODS AND MATERIALS FOR MAKING AND USING TRANSGENIC DICAMBA-DEGRADING ORGANISMS” (BOARD OF REGENTS OF THE UNIVERSITY OF NEBRASKA, priority 2001, dated 2002)
Like-named read-outs stand apart in the source and are kept apart here.

Assays:
[1] = tested on: Transgenic plants containing the three gene construct (oxygenase, ferredoxin and reductase genes)
wild type tobacco plants = details: for effect on non-transgenic plants: sprayed
[2] = tested on: Transgenic tobacco plants bearing oxygenase gene constructs but lacking the transit peptide coding sequence; details: sprayed, 0.5 lbs/acre to 5 lbs/acre tested
[3] = tested on: transgenic tobacco plants bearing the oxygenase gene constructs with the transit peptide; details: 0.5 lbs/acre to 5 lbs/acre tested

COc1c(Cl)ccc(Cl)c1C(=O)O [dicamba, 2-methoxy-3,6-dichlorobenzoic acid] was tested, and the “effect on transgenic plants” value ([1]; 0.125 Ib/acre dicamba, sprayed) was “grew and were healthy”, the “predicted resistance to dicamba” value ([1]; predicted from plants with the oxygenase construct alone) was ≥ 2.5 Ib/acre and the “effect on non-transgenic plants” value (wild type tobacco plants; 0.125 Ib/acre dicamba) was “reduced growth, withering and severe necrosis”. The “sensitivity of the wild type plants” value (wild type tobacco plants; 0.5 lbs/acre of dicamba, sprayed at 10-12-leaf stage with non-ionic surfactant) was 100%, the “effect on non-transgenic plants” value (wild type tobacco plants; same amounts of dicamba as the transgenic plants (0.5 lbs/acre to 5 lbs/acre)) was “reduced growth, withering and severe necrosis” and the “dicamba treatment to which plants displayed resistance (grew and were healthy)” value [2] was “at least 2.5 lbs/acre”. For the same compound, the “concentration of dicamba at which sprayed plants grew and were healthy” value [3] was “up to 5 lbs/acre”.
